Results published in US6448204B1, “Herbicidal 2-aryloxy-4-methyl-6-pyrazol-1-yl-pyridines” (BASF Aktiengesellschaft, priority 1999, dated 2002).

Tests used:
Assay type in all cases: in vivo
[1] = system: Ipomoea hederacea (IPOHE); assay: Pre-emergence test; settings: 0.400 kg/ha, 3 weeks after treatment
Procedure: (§1) To evaluate their herbicidal activity, compounds according to the invention are tested using a representative range of plants: […] The pre-emergence tests involve spraying a liquid formulation of the compound onto the soil in which the seeds of the plant species mentioned above has recently been sown. The soil used in the tests is a prepared horticultural loam. […] In these tests untreated sown soil are used as controls.

[2] = system: Abutilon theophrasti (ABUTH); assay: Pre-emergence test; settings: 3 weeks after treatment
Procedure: as §1

[3] = system: Digitaria sanguinalis (DIGSA); assay: Post-emergence test; settings: 2-4 weeks after treatment
Procedure: (§2) To evaluate their herbicidal activity, compounds according to the invention are tested using a representative range of plants:
(§3) These acetone solutions are diluted with water and the resulting formulations applied at dosage levels equivalent of about 0.025 to 0.4 kg per hectare of test compound per pot. After spraying the plants are placed on greenhouse benches and are cared for in the usual manner, commensurate with conventional greenhouse practices. From 2 to 4 weeks after treatment, the seedling plants are examined and rated according to the rating system provided above.

[4] = system: Ambrosia artemisifolia (AMBEL); assay: Post-emergence test; settings: 2-4 weeks after treatment
Procedure: as §2, §3

[5] = system: Lolium multiflorum (LOLMU); assay: Post-emergence test; settings: 2-4 weeks after treatment
Procedure: as §2, §3

[6] = system: Echinochloa crus-galli (ECHCG); assay: Post-emergence test; settings: 2-4 weeks after treatment
Procedure: as §2, §3

[7] = system: Matricaria inodora (MATIN); assay: Post-emergence test; settings: 2-4 weeks after treatment
Procedure: as §2, §3

[8] = system: Cassia obtusifolia (CASOB); assay: Post-emergence test; settings: 2-4 weeks after treatment
Procedure: as §2, §3

[9] = system: Alopecurus myosuroides (ALOMY); assay: Post-emergence test; settings: 2-4 weeks after treatment
Procedure: as §2, §3

[10] = system: Setaria viridis (SETVI); assay: Post-emergence test; settings: 2-4 weeks after treatment
Procedure: as §2, §3

[11] = system: Lamium purpureum (LAMPU); assay: Post-emergence test; settings: 2-4 weeks after treatment
Procedure: as §2, §3

[12] = system: Stellaria media (STEME); assay: Post-emergence test; settings: 2-4 weeks after treatment
Procedure: as §2, §3

[13] = system: Galium aparine (GALAP); assay: Post-emergence test; settings: 2-4 weeks after treatment
Procedure: as §2, §3

[14] = system: Ipomoea hederacea (IPOHE); assay: Post-emergence test; settings: 2-4 weeks after treatment
Procedure: as §2, §3

[15] = system: Abutilon theophrasti (ABUTH); assay: Post-emergence test; settings: 2-4 weeks after treatment
Procedure: as §2, §3

[16] = system: weed species; assay: Post-emergence test, summary over all weeds
Procedure: as §2, §3

[17] = system: thirteen weed species (broadleaf weeds and grasses); assay: Pre-emergence test, summary over all weeds; settings: for Number of weed species well / sufficiently controlled: out of thirteen species
Procedure: as §1

For `Cn1nc(C(F)(F)F)cc1Oc1cccc(-n2ccc(C(F)(F)F)n2)n1` [Comparison], which “Assessment rating IPOHE (pre-emergence application)” value [1] is on record?
Its value is 7 (7 - Good herbicidal effect).

And the “Assessment rating ABUTH (pre-emergence application)” value (“Assessment rating ABUTH” below) ([2]; 0.013 kg/ha)?
Its value is 0 (0 - No effect).

What about the “Assessment rating ABUTH” value ([2]; 0.025 kg/ha) of the same molecule?
Its value is 0 (0 - No effect).

And the “Assessment rating ABUTH” value ([2]; 0.100 kg/ha)?
Its value is 5 (5 - Definite injury).

What about the “Assessment rating ABUTH” value ([2]; 0.400 kg/ha) of the same molecule?
Its value is 9 (9 - Complete kill).

What about the “Rating DIGSA (post-emergence application)” value (from here on “Rating DIGSA”) ([3]; 0.025 kg/ha) of the same molecule?
The value was 3 (3 - Moderate effect).

What about the “Rating DIGSA” value ([3]; 0.100 kg/ha) of the same molecule?
The value was 6 (6 - Herbicidal effect).

What about the “Rating DIGSA” value ([3]; 0.400 kg/ha) of the same molecule?
The value was 8 (8 - Approaching complete kill).

What about the “Rating AMBEL (post-emergence application)” value (shortened to “Rating AMBEL”) ([4]; 0.025 kg/ha) of the same molecule?
The value was 2 (2 - Slight effect).

And the “Rating AMBEL” value ([4]; 0.100 kg/ha)?
The value was 6 (6 - Herbicidal effect).

And the “Rating AMBEL” value ([4]; 0.400 kg/ha)?
Its value is 8 (8 - Approaching complete kill).

And the “Rating LOLMU (post-emergence application)” value (“Rating LOLMU” below) ([5]; 0.025 kg/ha)?
Its value is 4 (4 - Injury).

What about the “Rating LOLMU” value ([5]; 0.100 kg/ha) of the same molecule?
The value was 7 (7 - Good herbicidal effect).

And the “Rating LOLMU” value ([5]; 0.400 kg/ha)?
Its value is 9 (9 - Complete kill).

What about the “Rating ECHCG (post-emergence application)” value (from here on “Rating ECHCG”) ([6]; 0.025 kg/ha) of the same molecule?
Its value is 4 (4 - Injury).

And the “Rating ECHCG” value ([6]; 0.100 kg/ha)?
Its value is 7 (7 - Good herbicidal effect).

What about the “Rating ECHCG” value ([6]; 0.400 kg/ha) of the same molecule?
Its value is 9 (9 - Complete kill).

What about the “Rating MATIN (post-emergence application)” value (shortened to “Rating MATIN”) ([7]; 0.025 kg/ha) of the same molecule?
The value was 4 (4 - Injury).

And the “Rating MATIN” value ([7]; 0.100 kg/ha)?
Its value is 6 (6 - Herbicidal effect).

What about the “Rating MATIN” value ([7]; 0.400 kg/ha) of the same molecule?
Its value is 8 (8 - Approaching complete kill).

And the “Rating CASOB (post-emergence application)” value (“Rating CASOB” below) ([8]; 0.025 kg/ha)?
Its value is 9 (9 - Complete kill).

What about the “Rating CASOB” value ([8]; 0.100 kg/ha) of the same molecule?
Its value is 9 (9 - Complete kill).

What about the “Rating CASOB” value ([8]; 0.400 kg/ha) of the same molecule?
The value was 9 (9 - Complete kill).

What about the “Rating ALOMY (post-emergence application)” value (from here on “Rating ALOMY”) ([9]; 0.025 kg/ha) of the same molecule?
Its value is 2 (2 - Slight effect).

And the “Rating ALOMY” value ([9]; 0.100 kg/ha)?
Its value is 4 (4 - Injury).

What about the “Rating ALOMY” value ([9]; 0.400 kg/ha) of the same molecule?
Its value is 8 (8 - Approaching complete kill).

And the “Rating SETVI (post-emergence application)” value (shortened to “Rating SETVI”) ([10]; 0.025 kg/ha)?
Its value is 3 (3 - Moderate effect).

And the “Rating SETVI” value ([10]; 0.100 kg/ha)?
The value was 6 (6 - Herbicidal effect).

And the “Rating SETVI” value ([10]; 0.400 kg/ha)?
Its value is 8 (8 - Approaching complete kill).

And the “Rating LAMPU (post-emergence application)” value (“Rating LAMPU” below) ([11]; 0.025 kg/ha)?
Its value is 7 (7 - Good herbicidal effect).

And the “Rating LAMPU” value ([11]; 0.100 kg/ha)?
The value was 9 (9 - Complete kill).

What about the “Rating LAMPU” value ([11]; 0.400 kg/ha) of the same molecule?
Its value is 9 (9 - Complete kill).

What about the “Rating STEME (post-emergence application)” value (from here on “Rating STEME”) ([12]; 0.025 kg/ha) of the same molecule?
Its value is 7 (7 - Good herbicidal effect).

And the “Rating STEME” value ([12]; 0.100 kg/ha)?
The value was 9 (9 - Complete kill).

What about the “Rating STEME” value ([12]; 0.400 kg/ha) of the same molecule?
The value was 9 (9 - Complete kill).

And the “Rating GALAP (post-emergence application)” value (shortened to “Rating GALAP”) ([13]; 0.025 kg/ha)?
Its value is 4 (4 - Injury).

What about the “Rating GALAP” value ([13]; 0.100 kg/ha) of the same molecule?
Its value is 6 (6 - Herbicidal effect).

What about the “Rating GALAP” value ([13]; 0.400 kg/ha) of the same molecule?
The value was 8 (8 - Approaching complete kill).

And the “Rating IPOHE (post-emergence application)” value ([14]; 0.025 kg/ha)?
The value was 5 (5 - Definite injury).

What about the “Rating IPOHE (post-emergence application)” value ([14]; 0.100 kg/ha) of the same molecule?
The value was 9 (9 - Complete kill).

And the “Rating IPOHE (post-emergence application)” value ([14]; 0.400 kg/ha)?
The value was 9 (9 - Complete kill).

What about the “Rating ABUTH (post-emergence application)” value ([15]; 0.025 kg/ha) of the same molecule?
Its value is 3 (3 - Moderate effect).

What about the “Rating ABUTH (post-emergence application)” value ([15]; 0.100 kg/ha) of the same molecule?
The value was 6 (6 - Herbicidal effect).

And the “Rating ABUTH (post-emergence application)” value ([15]; 0.400 kg/ha)?
Its value is 8 (8 - Approaching complete kill).

What about the “Number of weed species controlled” value ([16]; 0.025 kg/ha) of the same molecule?
Its value is “one species”.

What about the “Number of weed species controlled” value ([16]; 0.100 kg/ha) of the same molecule?
Its value is “four species”.

What about the “Active ingredient required for maize selective weed control relative to the compound of the invention” value [17] of the same molecule?
Its value is “four times more active ingredient”.

And the “Herbicidal activity, overall judgement” value [17]?
Its value is “clearly inferior in activity”.

What about the “Rate required to obtain the same level of weed control” value [17] of the same molecule?
The value was 0.400 kg/ha.

And the “Number of weed species well / sufficiently controlled” value ([17]; 0.100 kg/ha)?
The value was “six out of thirteen species”.

What about the “Number of weed species well / sufficiently controlled” value ([17]; 0.400 kg/ha) of the same molecule?
Its value is “ten”.
